In patent publication US12209092B2, “Inhibitors of GLI1 as therapeutic agents” (NEW YORK UNIVERSITY, priority 2018, dated 2025):
Read-outs that look alike come from different tables or passages of the source.

System: Gli1-mediated transcription
Test: Gli1-mediated transcriptional luciferase reporter assay
Type: cell-based
Conditions: Shh-LIGHT2 cells, antagonist mode, purmorphamine 1.5 μM stimulation, 24 h
Description: Gli1-mediated transcriptional luciferase reporter assay was performed using Shh-LIGHT2 cells in order to evaluate the effects on activation and inhibition of Gli1-mediated transcription by the compounds of the disclosure. Brief assay procedure is provided below. […] Shh-LIGHT2 cells were harvested from about 80% confluent 10-cm dish using 0.25% Trypsin-EDTA solution. Medium was removed, and cells were washed with 5 mL DPBS and aspirated. Then, 1 mL 0.25% Trypsin-EDTA solution was added to a 10-cm dish. The dish was placed in the incubator for 1-3 minutes, or until cells have detached. 3 mL of cell growth medium (DMEM, 10% FBS, 1% PenStrep, 1% sodium pyruvate, and 1% GlutaMax) was added to the 10-cm dish, and the contents were transferred to a conical tube. […] The cell assay plate was removed from incubator after cells reached confluency. The culture medium was then manually removed from the cell plates, and the plates were centrifuged at 200 rpm for 30 seconds. […] After 30 min incubation of antagonist, cells were stimulated with agonist (purmorphamine, 5 μL, 1.5 μM final), then incubate for 24 h at 37° C./5% CO2. […] Luciferase assay: After incubation, the cell assay plate was allowed to acclimate to room temperature. Then, 20 μL of Duo-Glo® Luciferase Reagent (Promega) was added to each well of cell assay plate. The plate was briefly spun down, mixed, and incubated for 30 minutes at room temperature. The cell plate was read using luminometer for firefly luminescence activity. Then, 20 μL of Duo-Glo® Step&Glo® Reagent (Promega) was added to each well of cell assay plate. The plate was briefly spun down, mixed, and incubated for 30 minutes at room temperature. The cell plate was read using luminometer for Renilla luminescence activity. Ratio of firefly: Renilla luminescence was calculated for each well. The compound well ratio was normalized to the ratio from a control well.

[1] = firefly luminescence, read-out: Gli1 IC50 firefly
[2] = ratio of firefly:Renilla luminescence, read-out: Gli1 IC50 firefly:Renilla ratio

| Structure (SMILES) | IC50 [1] [nM] | IC50 [2] [nM] |
| --- | --- | --- |
| Cn1c(-c2ccc(C3CC3)cc2Cl)nc2c1CN(C1CCc3ccc(Cl)cc3C1)CC2 (stereo not shown) [Example 163, 5-(7-chloro-1,2,3,4-tetrahydronaphthalen-2-yl)-2-(2-chloro-4-cyclopropylphenyl)-3-methyl-4,5,6,7-tetrahydro-3H-imidazo[4,5-c]pyridine] | < 100 | < 100 |
| Cn1c(-c2ccc(C3CC3)cc2Cl)nc2c1CCN(C1CCc3ccc(Cl)cc3C1)C2 (stereo not shown) [Example 164, 5-(7-chloro-1,2,3,4-tetrahydronaphthalen-2-yl)-2-(2-chloro-4-cyclopropylphenyl)-1-methyl-4,5,6,7-tetrahydro-1H-imidazo[4,5-c]pyridine] | 100 to 490 | 100 to 490 |
| Clc1ccccc1-c1nc2c([nH]1)CC(N1CCc3cccc(Cl)c3C1)CC2 (stereo not shown) [Example 185, 8-chloro-2-(2-(2-chlorophenyl)-4,5,6,7-tetrahydro-1H-benzo[d]imidazol-6-yl)-1,2,3,4-tetrahydroisoquinoline] | < 100 | < 100 |
| Clc1ccccc1-c1nc2c([nH]1)C[C@@H](N1CCc3cccc(Cl)c3C1)CC2 [Example 185-S, (S)-8-chloro-2-(2-(2-chlorophenyl)-4,5,6,7-tetrahydro-1H-benzo[d]imidazol-6-yl)-1,2,3,4-tetrahydroisoquinoline] | 100 to 490 | < 100 |
| Clc1ccccc1-c1nc2c([nH]1)CC(N1Cc3cccc(Cl)c3C1)CC2 (stereo not shown) [Example 186, 6-(4-chloroisoindolin-2-yl)-2-(2-chlorophenyl)-4,5,6,7-tetrahydro-1H-benzo[d]imidazole] | < 100 | < 100 |
| Cn1c(-c2ccccc2Cl)nc2c1CC(N1CCc3cccc(Cl)c3C1)CC2 (stereo not shown) [Example 187, 8-chloro-2-(2-(2-chlorophenyl)-1-methyl-4,5,6,7-tetrahydro-1H-benzo[d]imidazol-6-yl)-1,2,3,4-tetrahydroisoquinoline] | < 100 | < 100 |
| Cn1c(-c2ccccc2Cl)nc2c1CCC(N1CCc3cccc(Cl)c3C1)C2 (stereo not shown) [Example 188, 8-chloro-2-(2-(2-chlorophenyl)-1-methyl-4,5,6,7-tetrahydro-1H-benzo[d]imidazol-5-yl)-1,2,3,4-tetrahydroisoquinoline] | < 100 | < 100 |
| Cn1c(-c2ccccc2Cl)nc2c1CC(N1Cc3cccc(Cl)c3C1)CC2 (stereo not shown) [Example 189, 6-(4-chloroisoindolin-2-yl)-2-(2-chlorophenyl)-1-methyl-4,5,6,7-tetrahydro-1H-benzo[d]imidazole] | < 100 | < 100 |
